Test system: Escherichia coli strain ATCC25922
Assay: standard microdilution assay to determine minimum inhibitory concentrations (MICs)
Format: cell-based
Settings: Escherichia coli strain ATCC25922, microdilution
In short: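 Broth microdilution MIC against E. coli ATCC25922, following CLSI protocols, typically in a 100 microliter final volume. Results reported as +/− relative to a 16 micrograms/ml cutoff.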

SMILES	E. coli ATCC25922 MIC
CC(=O)NCc1ccc(-n2cc3cc(-c4cccc(CCCN)c4)[nH]c3nc2=O)cc1 [Compound 2063a]	− (a “−” indicates that the compound has an MIC value greater than 16 micrograms/ml)
N=C(N)NCCCNCc1ccc(-n2cc3cc(-c4cc(CN)cc(CCCCN)c4)[nH]c3nc2=O)cc1 [Compound 2064a]	+ (a “+” indicates that the compound has an MIC value of 16 micrograms/ml or less)
N=C(N)NCCCNCc1ccc(-n2cc3cc(-c4cc(CO)cc(CCCCN)c4)[nH]c3nc2=O)cc1 [Compound 2065a]	+ (a “+” indicates that the compound has an MIC value of 16 micrograms/ml or less)
CSc1cc(CCCCN)cc(-c2cc3cn(-c4ccc(CNCCCNC(=N)N)cc4)c(=O)nc3[nH]2)c1 [Compound 2066a]	+ (a “+” indicates that the compound has an MIC value of 16 micrograms/ml or less)
N=C(N)NCCCNCc1ccc(-n2cc3cc(-c4cc(C(F)(F)F)cc(S(=O)(=O)NCCN)c4)[nH]c3nc2=O)cc1 [Compound 2067a]	+ (a “+” indicates that the compound has an MIC value of 16 micrograms/ml or less)
N=C(N)NCCCNCc1ccc(-n2cc3cc(-c4cc(Cl)cc(CCCCN)c4)[nH]c3nc2=O)cc1 [Compound 2068a]	+ (a “+” indicates that the compound has an MIC value of 16 micrograms/ml or less)
N=C(N)NCCCNCc1ccc(-n2cc3cc(-c4cc(CCCCN)cc(C(N)=O)c4)[nH]c3nc2=O)cc1 [Compound 2069a]	+ (a “+” indicates that the compound has an MIC value of 16 micrograms/ml or less)
N=C(N)NCCCNCc1ccc(-n2cc3cc(-c4cc(CNCCN)cc(OC(F)(F)F)c4)[nH]c3nc2=O)cc1 [Compound 2070a]	+ (a “+” indicates that the compound has an MIC value of 16 micrograms/ml or less)
N=C(N)NCCCNCc1ccc(-n2cc3cc(-c4ccc(F)c(CCCCN)c4)[nH]c3nc2=O)cc1 [Compound 2071a]	+ (a “+” indicates that the compound has an MIC value of 16 micrograms/ml or less)
N=C(N)NCCCNCc1ccc(-n2cc3cc(-c4ccc(OC(F)(F)F)c(CCCCN)c4)[nH]c3nc2=O)cc1 [Compound 2072a]	+ (a “+” indicates that the compound has an MIC value of 16 micrograms/ml or less)
N=C(N)NCCCNCc1ccc(-n2cc3cc(-c4cc(CCCCN)ccc4Cl)[nH]c3nc2=O)cc1 [Compound 2073a]	+ (a “+” indicates that the compound has an MIC value of 16 micrograms/ml or less)
N=C(N)NCCCNCc1ccc(-n2cc3cc(-c4cc(CCCCN)cc(OC(F)F)c4)[nH]c3nc2=O)cc1 [Compound 2074a]	+ (a “+” indicates that the compound has an MIC value of 16 micrograms/ml or less)
N=C(N)NCCCNCc1ccc(-n2cc3cc(-c4cccc(C(CCCN)C(F)(F)F)c4)[nH]c3nc2=O)cc1 (centres unmarked) [Compound 2075a]	+ (a “+” indicates that the compound has an MIC value of 16 micrograms/ml or less)
N=C(N)NCCCNCc1ccc(-n2cc3cc(-c4cc(OC(F)(F)F)cc([S+]([O-])CCCN)c4)[nH]c3nc2=O)cc1 (centres unmarked) [Compound 2076a]	+ (a “+” indicates that the compound has an MIC value of 16 micrograms/ml or less)
N=C(N)NCCC(NCc1ccc(-n2cc3cc(-c4cc(CCCCN)cc(OC(F)(F)F)c4)[nH]c3nc2=O)cc1)C(F)(F)F (centres unmarked) [Compound 2078a]	+ (a “+” indicates that the compound has an MIC value of 16 micrograms/ml or less)
N=C(N)NCCCNCc1ccc(-n2cc3cc(-c4cc(Br)cc(CCCCN)c4)[nH]c3nc2=O)cc1 [Compound 2079a]	+ (a “+” indicates that the compound has an MIC value of 16 micrograms/ml or less)
N=C(N)NCCCNC(c1ccc(-n2cc3cc(-c4cc(CCCCN)cc(OC(F)(F)F)c4)[nH]c3nc2=O)cc1)C(F)(F)F (centres unmarked) [Compound 2081a]	+ (a “+” indicates that the compound has an MIC value of 16 micrograms/ml or less)
N=C(N)NCCCCc1cc(OC(F)(F)F)cc(-c2cc3cn(-c4ccc(C(NCCCNC(=N)N)C(F)(F)F)cc4)c(=O)nc3[nH]2)c1 (centres unmarked) [Compound 2082a]	+ (a “+” indicates that the compound has an MIC value of 16 micrograms/ml or less)
CSCc1cc(CCCCN)cc(-c2cc3cn(-c4ccc(CNCCCNC(=N)N)cc4)c(=O)nc3[nH]2)c1 [Compound 2083a]	+ (a “+” indicates that the compound has an MIC value of 16 micrograms/ml or less)
N#Cc1cc(CCCCN)cc(-c2cc3cn(-c4ccc(CNCCCNC(=N)N)cc4)c(=O)nc3[nH]2)c1 [Compound 2084a]	+ (a “+” indicates that the compound has an MIC value of 16 micrograms/ml or less)
N=C(N)NCCCNCc1ccc(-n2cc3cc(-c4cc(F)cc(CCCCN)c4)[nH]c3nc2=O)cc1 [Compound 2085a]	+ (a “+” indicates that the compound has an MIC value of 16 micrograms/ml or less)
N=C(N)NCCCNCc1ccc(-n2cc3cc(-c4cc(CCCCN)cc(C(F)F)c4)[nH]c3nc2=O)cc1 [Compound 2087a]	+ (a “+” indicates that the compound has an MIC value of 16 micrograms/ml or less)
CS(=O)(=O)Cc1cc(CCCCN)cc(-c2cc3cn(-c4ccc(CNCCCNC(=N)N)cc4)c(=O)nc3[nH]2)c1 [Compound 2088a]	+ (a “+” indicates that the compound has an MIC value of 16 micrograms/ml or less)
N=C(N)NCCCNCc1ccc(-n2cc3cc(-c4ccc(Cl)c(CCCCN)c4)[nH]c3nc2=O)cc1 [Compound 2089a]	+ (a “+” indicates that the compound has an MIC value of 16 micrograms/ml or less)
CS(=O)(=O)NCc1cc(CCCCN)cc(-c2cc3cn(-c4ccc(CNCCCNC(=N)N)cc4)c(=O)nc3[nH]2)c1 [Compound 2090a]	+ (a “+” indicates that the compound has an MIC value of 16 micrograms/ml or less)
N=C(N)NCCCNCc1ccc(-n2cc3cc(-c4cc(CCCCN)ccc4F)[nH]c3nc2=O)cc1 [Compound 2091a]	+ (a “+” indicates that the compound has an MIC value of 16 micrograms/ml or less)
N=C(N)NCCCNCc1ccc(-n2cc3cc(-c4cc(CCCCN)cc(S(N)(=O)=O)c4)[nH]c3nc2=O)cc1 [Compound 2092a]	+ (a “+” indicates that the compound has an MIC value of 16 micrograms/ml or less)
CC(CCN)c1cc(-c2cc3cn(-c4ccc(CNCCCNC(=N)N)cc4)c(=O)nc3[nH]2)ccc1Cl (centres unmarked) [Compound 2093a]	+ (a “+” indicates that the compound has an MIC value of 16 micrograms/ml or less)

Same assay, conditions: Escherichia coli, ATCC25922, Escherichia coli strain ATCC25922, microdilution; read-out: E. coli ATCC25922 MIC

SMILES	MIC [µg/mL]
NCCCc1cccc(-c2cc3cn(-c4ccc(C(N)C(F)(F)F)cc4)c(=O)nc3[nH]2)c1 (centres unmarked) [Compound 2080a]	> 16

From patent US9193731B2, “Antimicrobial compounds and methods of making and using the same” (Melinta Therapeutics, Inc., priority 2009, dated 2015)
